From ChEMBL document CHEMBL1201862, “PubChem BioAssay data set” (2004)
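Five compound concentrations were applied to cells in 96-well plates for 48 hours; endpoints were derived by simple linear interpolation of the resulting dose-response curve. The concentration for 50% growth inhibition is given as GI50.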 Active and inactive are the calls of the source. Cut-off read from the data, not from the text of the source: active = GI50 up to about 1.1 µM and inactive = higher.

How the values were obtained:
Experiment in all cases: DTP human tumour cell line panel, 48 h
786-0 = tested on: 786-0
A549 = tested on: A549
ACHN = tested on: ACHN
CAKI-1 = tested on: CAKI-1
CCRF-CEM = tested on: CCRF-CEM
COLO 205 = tested on: COLO 205
DU-145 = tested on: DU-145
EKVX = tested on: EKVX
HCC 2998 = tested on: HCC 2998
HCT-116 = tested on: HCT-116
HCT-15 = tested on: HCT-15
HL-60 = tested on: HL-60
HOP-62 = tested on: HOP-62
HOP-92 = tested on: HOP-92
HT-29 = tested on: HT-29
Hs-578T = tested on: Hs-578T
IGROV-1 = tested on: IGROV-1
K562 = tested on: K562
KM12 = tested on: KM12
LOX IMVI = tested on: LOX IMVI
M14 = tested on: M14
MCF7 = tested on: MCF7
MDA-MB-231 = tested on: MDA-MB-231
MDA-MB-435 = tested on: MDA-MB-435
MDA-N = tested on: MDA-N
MOLT-4 = tested on: MOLT-4
Malme-3M = tested on: Malme-3M
NCI-H226 = tested on: NCI-H226
NCI-H23 = tested on: NCI-H23
NCI-H460 = tested on: NCI-H460
NCI/ADR-RES = tested on: NCI/ADR-RES
OVCAR-3 = tested on: OVCAR-3
OVCAR-4 = tested on: OVCAR-4
OVCAR-5 = tested on: OVCAR-5
OVCAR-8 = tested on: OVCAR-8
PC-3 = tested on: PC-3
RPMI-8226 = tested on: RPMI-8226
RXF 393 = tested on: RXF 393
SF-268 = tested on: SF-268
SF-295 = tested on: SF-295
SF-539 = tested on: SF-539
SK-MEL-28 = tested on: SK-MEL-28
SK-MEL-2 = tested on: SK-MEL-2
SK-MEL-5 = tested on: SK-MEL-5
SK-OV-3 = tested on: SK-OV-3
SN12C = tested on: SN12C
SNB-19 = tested on: SNB-19
SNB-75 = tested on: SNB-75
SR = tested on: SR
SW-620 = tested on: SW-620
T47D = tested on: T47D
TK-10 = tested on: TK-10
U-251 = tested on: U-251
UACC-257 = tested on: UACC-257
UACC-62 = tested on: UACC-62
UO-31 = tested on: UO-31

With `Nc1nc2c(ncn2C2C=CC(COS(N)(=O)=O)C2)c(=O)[nH]1` (stereo unspecified) the GI50 (786-0) was > 100 µM (inactive), the GI50 (A549) was > 100 µM (inactive) and the GI50 (ACHN) was > 100 µM (inactive). The GI50 (CAKI-1) was > 100 µM (inactive), the GI50 (CCRF-CEM) was > 100 µM (inactive) and the GI50 (COLO 205) was > 100 µM (inactive). For the same compound, the GI50 (DU-145) was > 100 µM (inactive), the GI50 (EKVX) was > 100 µM (inactive) and the GI50 (HCC 2998) was > 100 µM (inactive). For the same compound, the GI50 (HCT-116) was > 100 µM (inactive), the GI50 (HCT-15) was over 100 µM and the GI50 (HL-60) was > 100 µM (inactive). The GI50 (HOP-62) was > 100 µM (inactive), the GI50 (HOP-92) was > 100 µM (inactive) and the GI50 (HT-29) was > 100 µM (inactive). The GI50 (Hs-578T) was > 100 µM (inactive), the GI50 (IGROV-1) was > 100 µM (inactive) and the GI50 (K562) was > 100 µM (inactive). The GI50 (KM12) was > 100 µM (inactive), the GI50 (LOX IMVI) was > 100 µM (inactive) and the GI50 (M14) was > 100 µM (inactive). For the same compound, the GI50 (MCF7) was > 100 µM (inactive), the GI50 (MDA-MB-231) was > 100 µM (inactive) and the GI50 (MDA-MB-435) was > 100 µM (inactive). The GI50 (MDA-N) was > 100 µM (inactive), the GI50 (MOLT-4) was > 100 µM (inactive) and the GI50 (Malme-3M) was > 100 µM (inactive). The GI50 (NCI-H226) was > 100 µM (inactive), the GI50 (NCI-H23) was > 100 µM (inactive) and the GI50 (NCI-H460) was > 100 µM (inactive). The GI50 (NCI/ADR-RES) was > 100 µM (inactive), the GI50 (OVCAR-3) was > 100 µM (inactive) and the GI50 (OVCAR-4) was > 100 µM (inactive). The GI50 (OVCAR-5) was > 100 µM (inactive), the GI50 (OVCAR-8) was > 100 µM (inactive) and the GI50 (PC-3) was > 100 µM (inactive). For the same compound, the GI50 (RPMI-8226) was > 100 µM (inactive), the GI50 (RXF 393) was > 100 µM (inactive) and the GI50 (SF-268) was > 100 µM (inactive). The GI50 (SF-295) was > 100 µM (inactive), the GI50 (SF-539) was > 100 µM (inactive) and the GI50 (SK-MEL-28) was > 100 µM (inactive). For the same compound, the GI50 (SK-MEL-2) was > 100 µM (inactive), the GI50 (SK-MEL-5) was > 100 µM (inactive) and the GI50 (SK-OV-3) was > 100 µM (inactive). For the same compound, the GI50 (SN12C) was > 100 µM (inactive), the GI50 (SNB-19) was > 100 µM (inactive) and the GI50 (SNB-75) was > 100 µM (inactive). The GI50 (SR) was > 100 µM (inactive), the GI50 (SW-620) was > 100 µM (inactive) and the GI50 (T47D) was > 100 µM (inactive). The GI50 (TK-10) was > 100 µM (inactive), the GI50 (U-251) was > 100 µM (inactive) and the GI50 (UACC-257) was > 100 µM (inactive). For the same compound, the GI50 (UACC-62) was > 100 µM (inactive) and the GI50 (UO-31) was > 100 µM (inactive).
